Assay results: ChEMBL document CHEMBL4257451, “Synergism of fused bicyclic 2-aminothiazolyl compounds with polymyxin B against Klebsiella pneumoniae” (Medchemcomm, 2017)
Active and inactive are the calls of the source. No cut-off for these calls is given here.

Experiments:
Klebsiella pneumoniae [1] = assay: Growth inhibition of Klebsiella pneumoniae SIPI-KPN-1712 by broth microdilution method; format: organism-based; settings: in vitro
Klebsiella pneumoniae [2] = assay: Synergistic antibacterial activity against Klebsiella pneumoniae SIPI-KPN-1712 assessed as polymixin B MIC at 4 ug/ml by broth microdilution method (reference value: 32 ug/ml); format: functional
Klebsiella pneumoniae [3] = assay: Synergistic antibacterial activity against Klebsiella pneumoniae SIPI-KPN-1712 assessed as fractional Inhibitory concentration index in presence of polymixin B at 2 ug/ml by broth microdilution method; format: functional
Klebsiella pneumoniae [4] = assay: Synergistic antibacterial activity against Klebsiella pneumoniae SIPI-KPN-1712 assessed as fold reduction in polymixin B MIC at 1 ug/ml by broth microdilution method relative to polymixin B alone; format: functional
Klebsiella pneumoniae [5] = assay: Synergistic antibacterial activity against Klebsiella pneumoniae SIPI-KPN-1712 assessed as fold reduction in polymixin B MIC at 2 ug/ml by broth microdilution method relative to polymixin B alone; format: functional
Klebsiella pneumoniae [6] = assay: Synergistic antibacterial activity against Klebsiella pneumoniae SIPI-KPN-1712 assessed as fold reduction in polymixin B MIC at 4 ug/ml by broth microdilution method relative to polymixin B alone; format: functional
Klebsiella pneumoniae [7] = assay: Synergistic antibacterial activity against Klebsiella pneumoniae SIPI-KPN-1712 assessed as fold reduction in polymixin B MIC at 8 ug/ml by broth microdilution method relative to polymixin B alone; format: functional
Klebsiella pneumoniae [8] = assay: Synergistic antibacterial activity against Klebsiella pneumoniae SIPI-KPN-1712 assessed as fold reduction in polymixin B MIC at 16 ug/ml by broth microdilution method relative to polymixin B alone; format: functional
Klebsiella pneumoniae [9] = assay: Bactericidal activity against Klebsiella pneumoniae SIPI-KPN-1712 at 4 ug/ml up to 24 hrs by time kill assay; format: ADME, organism-based
Klebsiella pneumoniae [10] = assay: Synergistic bactericidal activity against Klebsiella pneumoniae SIPI-KPN-1712 at 4 ug/ml in presence of 0.5 to 1 ug/ml polymixin B up to 24 hrs by time kill assay; format: functional, organism-based
Klebsiella pneumoniae [11] = assay: Synergistic bactericidal activity against Klebsiella pneumoniae SIPI-KPN-1712 at 4 ug/ml in presence of 2 to 4 ug/ml polymixin B up to 24 hrs by time kill assay; format: functional, organism-based
Acinetobacter baumannii [12] = assay: Growth inhibition of Acinetobacter baumannii ATCC 19606 by broth microdilution method; format: organism-based, ATCC 19606 = CIP 70.34 = JCM 6841
Acinetobacter baumannii [13] = assay: Growth inhibition of Acinetobacter baumannii isolate 1 by broth microdilution method; format: organism-based
Acinetobacter baumannii [14] = assay: Growth inhibition of Acinetobacter baumannii isolate 2 by broth microdilution method; format: organism-based
Acinetobacter baumannii [15] = assay: Growth inhibition of Acinetobacter baumannii isolate 3 by broth microdilution method; format: organism-based
Acinetobacter baumannii [16] = assay: Growth inhibition of Acinetobacter baumannii isolate 4 by broth microdilution method; format: organism-based
Klebsiella pneumoniae [17] = assay: Growth inhibition of Klebsiella pneumoniae KPN-2677 by broth microdilution method; format: organism-based
Klebsiella pneumoniae [18] = assay: Growth inhibition of Klebsiella pneumoniae KPN-2967 by broth microdilution method; format: organism-based; settings: in vivo
Escherichia coli [19] = assay: Growth inhibition of Escherichia coli ATCC 25922 by broth microdilution method; format: organism-based
Escherichia coli [20] = assay: Growth inhibition of Escherichia coli isolate 2944 by broth microdilution method; format: organism-based
Escherichia coli [21] = assay: Growth inhibition of Escherichia coli isolate 2945 by broth microdilution method; format: organism-based
Pseudomonas aeruginosa [22] = assay: Growth inhibition of Pseudomonas aeruginosa ATCC 27853 by broth microdilution method; format: organism-based
Pseudomonas aeruginosa [23] = assay: Growth inhibition of Pseudomonas aeruginosa isolate 1399 by broth microdilution method; format: organism-based; settings: in vivo
Pseudomonas aeruginosa [24] = assay: Growth inhibition of Pseudomonas aeruginosa isolate 1292 by broth microdilution method; format: organism-based; settings: in vivo
Acinetobacter baumannii [25] = assay: Synergistic antibacterial activity against Acinetobacter baumannii ATCC 19606 assessed as polymixin B MIC at 4 ug/ml by broth microdilution method (reference value: 0.5 ug/ml); format: functional; settings: ATCC 19606 = CIP 70.34 = JCM 6841
Acinetobacter baumannii [26] = assay: Synergistic antibacterial activity against Acinetobacter baumannii isolate 1 assessed as polymixin B MIC at 4 ug/ml by broth microdilution method (reference value: 2 ug/ml); format: functional
Acinetobacter baumannii [27] = assay: Synergistic antibacterial activity against Acinetobacter baumannii isolate 2 assessed as polymixin B MIC at 4 ug/ml by broth microdilution method (reference value: 1 ug/ml); format: functional
Acinetobacter baumannii [28] = assay: Synergistic antibacterial activity against Acinetobacter baumannii isolate 3 assessed as polymixin B MIC at 4 ug/ml by broth microdilution method (reference value: 0.5 ug/ml); format: functional
Acinetobacter baumannii [29] = assay: Synergistic antibacterial activity against Acinetobacter baumannii isolate 4 assessed as polymixin B MIC at 4 ug/ml by broth microdilution method (reference value: 0.5 ug/ml); format: functional
Klebsiella pneumoniae [30] = assay: Synergistic antibacterial activity against Klebsiella pneumoniae KPN-2677 assessed as polymixin B MIC at 4 ug/ml by broth microdilution method (reference value: 0.5 ug/ml); format: functional
Klebsiella pneumoniae [31] = assay: Synergistic antibacterial activity against Klebsiella pneumoniae KPN-2967 assessed as polymixin B MIC at 4 ug/ml by broth microdilution method (reference value: 0.5 ug/ml); format: functional
Escherichia coli [32] = assay: Synergistic antibacterial activity against Escherichia coli ATCC 25922 assessed as polymixin B MIC at 4 ug/ml by broth microdilution method (reference value: 0.25 ug/ml); format: functional
Escherichia coli [33] = assay: Synergistic antibacterial activity against Escherichia coli isolate 2944 assessed as polymixin B MIC at 4 ug/ml by broth microdilution method (reference value: 0.125 ug/ml); format: functional
Escherichia coli [34] = assay: Synergistic antibacterial activity against Escherichia coli isolate 2945 assessed as polymixin B MIC at 4 ug/ml by broth microdilution method (reference value: 0.125 ug/ml); format: functional
Pseudomonas aeruginosa [35] = assay: Synergistic antibacterial activity against Pseudomonas aeruginosa ATCC 27853 assessed as polymixin B MIC at 4 ug/ml by broth microdilution method (reference value: 1 ug/ml); format: functional
Pseudomonas aeruginosa [36] = assay: Synergistic antibacterial activity against Pseudomonas aeruginosa isolate 1399 assessed as polymixin B MIC at 4 ug/ml by broth microdilution method (reference value: 1 ug/ml); format: functional
Pseudomonas aeruginosa [37] = assay: Synergistic antibacterial activity against Pseudomonas aeruginosa isolate 1292 assessed as polymixin B MIC at 4 ug/ml by broth microdilution method (reference value: 2 ug/ml); format: functional
Acinetobacter baumannii [38] = assay: Synergistic antibacterial activity against Acinetobacter baumannii ATCC 19606 in presence of polymixin B by broth microdilution method; format: functional, ATCC 19606 = CIP 70.34 = JCM 6841
Acinetobacter baumannii [39] = assay: Synergistic antibacterial activity against Acinetobacter baumannii isolate 1 in presence of polymixin B by broth microdilution method; format: functional
Acinetobacter baumannii [40] = assay: Synergistic antibacterial activity against Acinetobacter baumannii isolate 2 in presence of polymixin B by broth microdilution method; format: functional
Acinetobacter baumannii [41] = assay: Synergistic antibacterial activity against Acinetobacter baumannii isolate 3 in presence of polymixin B by broth microdilution method; format: functional
Acinetobacter baumannii [42] = assay: Synergistic antibacterial activity against Acinetobacter baumannii isolate 4 in presence of polymixin B by broth microdilution method; format: functional
Klebsiella pneumoniae [43] = assay: Synergistic antibacterial activity against Klebsiella pneumoniae KPN-2677 in presence of polymixin B by broth microdilution method; format: functional
Klebsiella pneumoniae [44] = assay: Synergistic antibacterial activity against Klebsiella pneumoniae KPN-2967 in presence of polymixin B by broth microdilution method; format: functional
Escherichia coli [45] = assay: Synergistic antibacterial activity against Escherichia coli ATCC 25922 in presence of polymixin B by broth microdilution method; format: functional
Escherichia coli [46] = assay: Synergistic antibacterial activity against Escherichia coli isolate 2944 in presence of polymixin B by broth microdilution method (reference value: 0.125 ug/ml); format: functional
Escherichia coli [47] = assay: Synergistic antibacterial activity against Escherichia coli isolate 2945 in presence of polymixin B by broth microdilution method (reference value: 0.125 ug/ml); format: functional
Pseudomonas aeruginosa [48] = assay: Synergistic antibacterial activity against Pseudomonas aeruginosa ATCC 27853 in presence of polymixin B by broth microdilution method (reference value: 1 ug/ml); format: functional
Pseudomonas aeruginosa [49] = assay: Synergistic antibacterial activity against Pseudomonas aeruginosa isolate 1399 in presence of polymixin B by broth microdilution method (reference value: 1 ug/ml); format: functional
Pseudomonas aeruginosa [50] = assay: Synergistic antibacterial activity against Pseudomonas aeruginosa isolate 1292 in presence of polymixin B by broth microdilution method (reference value: 2 ug/ml); format: functional
Klebsiella pneumoniae [51] = assay: Synergistic antibacterial activity against Klebsiella pneumoniae KPN-2677 assessed as fold reduction in polymixin B MIC by broth microdilution method relative to polymixin B alone; format: functional
Klebsiella pneumoniae [52] = assay: Synergistic antibacterial activity against Klebsiella pneumoniae KPN-2967 assessed as fold reduction in polymixin B MIC by broth microdilution method relative to polymixin B alone; format: functional

OC1CCCc2nc(Nc3ccc(Cl)cc3)sc21 (stereo not given)
MIC (Klebsiella pneumoniae [1]): > 128 µg/mL
MIC (Klebsiella pneumoniae [2]): 0.5 µg/mL
fractional inhibitory concentration index (FICI) (Klebsiella pneumoniae [3]): 0.05
fold change (FC) (Klebsiella pneumoniae [4]): 4
fold change (FC) (Klebsiella pneumoniae [5]): 16
fold change (FC) (Klebsiella pneumoniae [6]): 64
fold change (FC) (Klebsiella pneumoniae [7]): 128
fold change (FC) (Klebsiella pneumoniae [8]): 128
Activity (Klebsiella pneumoniae [9]): Non-Toxic
Activity (Klebsiella pneumoniae [10]): inactive
Activity (Klebsiella pneumoniae [11]): Active
MIC (Acinetobacter baumannii [12]): > 64 µg/mL
MIC (Acinetobacter baumannii [13]): > 64 µg/mL
MIC (Acinetobacter baumannii [14]): > 64 µg/mL
MIC (Acinetobacter baumannii [15]): > 64 µg/mL
MIC (Acinetobacter baumannii [16]): > 64 µg/mL
MIC (Klebsiella pneumoniae [17]): > 64 µg/mL
MIC (Klebsiella pneumoniae [18]): > 64 µg/mL
MIC (Escherichia coli [19]): > 64 µg/mL
MIC (Escherichia coli [20]): > 64 µg/mL
MIC (Escherichia coli [21]): > 64 µg/mL
MIC (Pseudomonas aeruginosa [22]): > 64 µg/mL
MIC (Pseudomonas aeruginosa [23]): > 64 µg/mL
MIC (Pseudomonas aeruginosa [24]): > 64 µg/mL
MIC (Acinetobacter baumannii [25]): 0.5 µg/mL
MIC (Acinetobacter baumannii [26]): 2 µg/mL
MIC (Acinetobacter baumannii [27]): 1 µg/mL
MIC (Acinetobacter baumannii [28]): 0.5 µg/mL
MIC (Acinetobacter baumannii [29]): 0.5 µg/mL
MIC (Klebsiella pneumoniae [30]): 0.5 µg/mL
MIC (Klebsiella pneumoniae [31]): 0.5 µg/mL
MIC (Escherichia coli [32]): 0.25 µg/mL
MIC (Escherichia coli [33]): 0.125 µg/mL
MIC (Escherichia coli [34]): 0.125 µg/mL
MIC (Pseudomonas aeruginosa [35]): 1 µg/mL
MIC (Pseudomonas aeruginosa [36]): 1 µg/mL
MIC (Pseudomonas aeruginosa [37]): 2 µg/mL
fractional inhibitory concentration index (FICI) (Acinetobacter baumannii [38]): 0.53
fractional inhibitory concentration index (FICI) (Acinetobacter baumannii [39]): 0.53
fractional inhibitory concentration index (FICI) (Acinetobacter baumannii [40]): 0.28
fractional inhibitory concentration index (FICI) (Acinetobacter baumannii [41]): 0.53
fractional inhibitory concentration index (FICI) (Acinetobacter baumannii [42]): 0.53
fractional inhibitory concentration index (FICI) (Klebsiella pneumoniae [43]): 0.06
fractional inhibitory concentration index (FICI) (Klebsiella pneumoniae [44]): 0.16
fractional inhibitory concentration index (FICI) (Escherichia coli [45]): 0.53
fractional inhibitory concentration index (FICI) (Escherichia coli [46]): 0.28
fractional inhibitory concentration index (FICI) (Escherichia coli [47]): 0.28
fractional inhibitory concentration index (FICI) (Pseudomonas aeruginosa [48]): 1.03
fractional inhibitory concentration index (FICI) (Pseudomonas aeruginosa [49]): 0.53
fractional inhibitory concentration index (FICI) (Pseudomonas aeruginosa [50]): 1.03
fold change (FC) (Klebsiella pneumoniae [51]): 32
fold change (FC) (Klebsiella pneumoniae [52]): 8

COC1CCCc2nc(Nc3ccc(Br)cc3)sc21 (stereo not given)
MIC (Klebsiella pneumoniae [1]): > 128 µg/mL
MIC (Klebsiella pneumoniae [2]): 2 µg/mL
fractional inhibitory concentration index (FICI) (Klebsiella pneumoniae [3]): 0.09
fold change (FC) (Klebsiella pneumoniae [6]): 16

COC1CCCc2nc(Nc3ccc4ccccc4n3)sc21 (stereo not given)
MIC (Klebsiella pneumoniae [1]): > 128 µg/mL
MIC (Klebsiella pneumoniae [2]): 32 µg/mL
fractional inhibitory concentration index (FICI) (Klebsiella pneumoniae [3]): 1.03

COC1CCCc2nc(Nc3c(Cl)cccc3Cl)sc21 (stereo not given)
MIC (Klebsiella pneumoniae [1]): > 128 µg/mL
MIC (Klebsiella pneumoniae [2]): 1 µg/mL
fractional inhibitory concentration index (FICI) (Klebsiella pneumoniae [3]): 0.06

Clc1ccc(Nc2nc3ccc(Cl)cc3s2)cc1
MIC (Klebsiella pneumoniae [1]): > 128 µg/mL
MIC (Klebsiella pneumoniae [2]): 32 µg/mL
fractional inhibitory concentration index (FICI) (Klebsiella pneumoniae [3]): 1.03
